Assay results as given in PMC3368886, “ATPase Cycle and DNA Unwinding Kinetics of RecG Helicase” (PLoS ONE, 2012).

Tests used:
RecG = molecular target: T1, RecG (Thermotoga maritima, UniProt Q9WY48); experiment: ATP hydrolysis during unwinding (phosphate biosensor, heparin trap); type: biochemical; conditions: 200 nM 4-strand complementary junction, 10 nM RecG, 200 µM ATP
T1 construct: made in house
T1 sequence (Q9WY48 1-780): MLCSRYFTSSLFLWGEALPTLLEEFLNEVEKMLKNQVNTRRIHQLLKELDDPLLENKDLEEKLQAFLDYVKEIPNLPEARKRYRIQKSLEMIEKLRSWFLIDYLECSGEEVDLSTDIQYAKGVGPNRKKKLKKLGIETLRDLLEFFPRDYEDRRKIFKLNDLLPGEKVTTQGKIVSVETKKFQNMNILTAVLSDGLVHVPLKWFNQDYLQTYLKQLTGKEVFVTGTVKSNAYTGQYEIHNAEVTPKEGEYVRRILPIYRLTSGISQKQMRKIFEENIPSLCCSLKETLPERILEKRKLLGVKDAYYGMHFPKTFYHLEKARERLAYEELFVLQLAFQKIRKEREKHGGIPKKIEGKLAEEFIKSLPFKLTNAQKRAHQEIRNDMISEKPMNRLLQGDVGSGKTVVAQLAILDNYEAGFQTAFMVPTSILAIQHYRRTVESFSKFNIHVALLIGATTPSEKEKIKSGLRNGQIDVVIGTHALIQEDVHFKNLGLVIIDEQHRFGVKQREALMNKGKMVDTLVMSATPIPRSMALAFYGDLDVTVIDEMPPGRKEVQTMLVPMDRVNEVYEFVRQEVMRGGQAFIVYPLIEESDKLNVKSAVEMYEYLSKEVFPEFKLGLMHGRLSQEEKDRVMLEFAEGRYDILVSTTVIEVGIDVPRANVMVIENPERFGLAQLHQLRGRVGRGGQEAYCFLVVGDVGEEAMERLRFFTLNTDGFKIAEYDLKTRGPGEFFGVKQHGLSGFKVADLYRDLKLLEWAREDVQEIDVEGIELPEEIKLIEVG
Experimental: The rate of ATP hydrolysis and total ATP usage during unwinding were measured using the phosphate biosensor (Figure 8), following rapid mixing of ATP with the RecG⋅DNA complex. […] Heparin is a potent inhibitor of many helicases, mimicking the DNA substrate and binding tightly to the enzyme, once the latter dissociates from the DNA, and so prevents rebinding of the helicase to fresh DNA substrates. The initial, rapid phase, which represents unwinding of the first DNA junction, was unaffected by the presence of heparin. […] RecG will continue to hydrolyze ATP while bound to the DNA substrate.
Figure 8 ATP hydrolysis during unwinding 4-strand complementary junctions. Junctions of varying arm lengths (shown in b.p.) were used to measure the rate of ATP hydrolysis during unwinding. RecG was pre-incubated with junction and the reactions were initiated by rapid mixing with ATP and heparin. […]
The ATPase measurement was repeated with different lengths of lagging and leading strands, as used in the unwinding measurements, in the presence of heparin (Figure 8 main panel). […] The ATPase rate measured here is similar to the steady-state and hydrolysis rate constants measured in the above sections, supporting the idea that the ATP hydrolysis reaction is not greatly affected by the type of junction.

RecG⋅DNA(A40:B40) = molecular target: T2, RecG⋅DNA(A40:B40) (Thermotoga maritima, UniProt Q9WY48); experiment: Pi release with excess ATP, global fit to ATPase cycle model; type: biochemical; conditions: 0.5 µM RecG, 2.5 µM DNA (A40:B40)
T2 construct: made in house
T2 sequence (Q9WY48 1-780): T1 sequence (Q9WY48 1-780)
Experimental: The rate of Pi release was measured after mixing RecG⋅DNA with excess ATP, using the phosphate biosensor, in the stopped-flow apparatus (Figure 6A). […] Both phases are dependent on ATP concentration. The lag decreased, while the rate of the linear phase increased with greater concentrations of ATP. The lag is due to the steps prior to Pi release, namely ATP binding and cleavage. […] Such a burst phase would result from the relatively fast Pi release of the initial cycle before the Pi release of subsequent cycles was limited by slow ADP release.
Figure 6 ATPase cycle measurements with unmodified nucleotides. (A) Phosphate measurements at different ATP concentrations. 0.5 µM RecG, premixed with 2.5 µM DNA (A40:B40), was then mixed in the stopped-flow apparatus with ATP at the micromolar concentrations shown, in the presence of 10 µM MDCC-PBP. (B) Best fit time courses of the Pi release, based upon a model of the ATPase cycle, as described in the text. Curves were obtained by glogal fitting the curves at different concentrations, using Global kinetic Explorer. Note that in comparison, the experimental time courses show a small transient of Pi at times <100 ms. This is likely to be due to free Pi and this behavior, overlaying a lag, has been observed previously in multi-turnover measurements. (C) ADP Release kinetics. 10 µM RecG⋅DNA (A40∶B40) was pre-bound with 10 µM ADP before mixing with an excess of mantADP (20 µM): these concentrations are final in the mixing chamber. The increase in fluorescence was fitted to single exponential giving the dissociation rate constant of 11.4 (±2.2) s^−1. Rate constants were independent of mantADP concentration in the range of 20–80 µM.
A scheme of the ATPase cycle (Figure 2) was used to simulate the data to assess the individual rate constants. […] The simulated traces (Figure 6B) were obtained from a global fit to the experimental data. This was done by allowing only the rate constants that have maximum influence on the curve shapes to vary. Cleavage and Pi release were assumed to be irreversible. For the fit, Pi release was fixed at 100 s^–1, ADP release at 12.5 s^–1, as the fitting was relatively insensitive to changes in these constants. […] The resulting best fit gave rate constants for ATP binding as 0.65 (±0.02) µM^−1s^−1, dissociation of ATP as 10.0 (±0.6) s^−1, cleavage as 7.1 (±0.1) s^−1. The fit gave a cleavage rate constant similar to the value of k cat from the steady-state analysis (Table 1a). The rate constant for ADP release may be only slightly larger than that of cleavage step.
Data were fitted to theoretical equations using the stopped-flow software or Grafit. Kinetic simulations were performed using Berkeley Madonna (Version 8.3, University of California at Berkeley) and using Global Kinetic Explorer (Kintek). […]

## Nc1ncnc2c1ncn2[C@@H]1O[C@H](COP(=O)(O)OP(=O)(O)OP(=O)(O)O)[C@@H](O)[C@H]1O [ATP]
RecG
  rate of ATP hydrolysis during unwinding phase: 5.8 s⁻¹
RecG⋅DNA(A40:B40)
  cleavage (global fit): 7.1 (±0.1) s^−1
  dissociation of ATP (global fit): 10.0 (±0.6) s^−1
  rate constant for ATP binding (global fit): 0.65 (±0.02) µM^−1s^−1
